Key:
Type in all cases: in vivo, rat
[1] = tested on: streptozotocin-induced diabetic rats; test: Tactile allodynia, 50% withdrawal force to von Frey filaments in experimentally diabetic rats; conditions: for prevention of tactile allodynia (result in words): 3 months of treatment, diabetic rats, FIG. 2, aspirin 0.3 mg/kg, VIT E 4 g/kg diet, AMG 3 g/kg diet, PJ-34 20 mg/kg daily in drinking water; for animals in which development of tactile allodynia was prevented: SFZ 150 mg/kg BW daily in drinking water, vs non-treated diabetic group
Text: Streptozotocin-induced diabetic rats (6-8 animals per group) were either left untreated or subjected to treatment with SFZ for up to 9 months. The presence of tactile allodynia was investigated at different time-points. […] Diabetic rats were either left untreated or subjected to treatment with either SFZ, the PARP inhibitor PJ-34, vitamin E (Vit E), or aminoguanidine (AMG) for 3 months. […] Experimentally diabetic rats display tactile allodynia (i.e., the perception of non-painful stimuli as painful), as evidenced by a significant decrease in the 50% withdrawal force (force at which there is a 50% probability of withdrawal) to von Frey filaments (FIGS. 1 and 2). The tactile allodynia was evident as early as 1 month after induction of diabetes and persisted throughout the experimental period (FIG. 1). Importantly, when compared to the non-treated diabetic group, administration of SFZ (150 mg/kg BW, daily, added to drinking water) prevented the development of tactile allodynia in either 50% or 80-100% of the animals after one or three months of treatment, respectively. We compared the effect of SFZ treatment on tactile allodynia in experimentally diabetic rats with those elicited by other salicylates (i.e. aspirin, 0.3 mg/kg), by the anti-oxidants Vitamin E (VIT E; 4 g/kg diet) and by aminoguanidine (AMG; 3 g/kg diet) and by the poly-ADP ribose-polymerase (PARP) inhibitor PJ-34 (20 mg/kg, daily, added to drinking water).

[2] = tested on: streptozotocin-induced diabetic rats; test: Mechanical hyperalgesia, Randall and Selitto test in streptozotocin-induced diabetic rats; conditions: results not shown
Text: Experimentally diabetic rats display nociceptive alterations in addition to tactile allodynia.

p65 NFkB = test: Western blot of p65 NFkB expression in sciatic nerves of diabetic rats; conditions: 3-month SFZ-treated diabetic rats, immunoblot, FIG. 3
Text: FIG. 3 is a Western blot analysis of p65 NFkB and CREB expression in sciatic nerves from individual normal (N), 3-month diabetic (D) and 3-month SFZ-treated diabetic (S) rats. Nerve proteins were subjected to SDS-PAGE and immunoblotting with antisera against p65 NFkB (left panel) or total (CREB) and phosphorylated CREB (p-CREB) (right panel). The ratio between the levels of pCREB and total CREB, in arbitrary units, is shown at the bottom of the respective lanes (numbers underneath the lanes). Blots were also probed using anti-ERK2 to control for protein loading. We carried out preliminary studies to determine the ability of commercial antibodies to detect the p65 subunit of NFkB, phospho-CREB (p-CREB) and CREB in sciatic nerve extracts (FIG. 3), as well as the possible changes in the expression of these transcription factors during experimental diabetes. The signal detected in the immunoblots is likely to reflect the presence of these transcription factors in Schwann cells, fibroblasts and/or endothelial cells. […] We are currently performing electrophoretic mobility shift assays (EMSA) to determine whether the increased immunoreactivity of p65 NFkB in diabetic nerves is paralleled by an increase in NFkB activity. At the same time, we observed a modest decrease in the levels of p-CREB relative to total CREB in diabetic nerves (FIG. 3, right panel). […]

NO = NO levels (nitrate+nitrite, fluorometric assay kit) in sciatic nerve extracts of diabetic rats; conditions: sciatic nerves; SFZ 200 mg/Kg BW daily for 9 months; mean ± SD of 3 animals
Method: (§1) NO levels were assayed in extracts from sciatic nerves (epineurium-free) by measuring the stable metabolites of NO (nitrate+nitrite) using a fluorometric assay kit. At the same time, the levels of PGE2 were evaluated by ELISA using a commercial kit (Cayman Chemical). In parallel samples, we also performed an immunoblot analysis to investigate possible changes in the expression of COX-2, one of the enzymes that convert arachidonic acid into PGE2.

PGE2 = PGE2 levels by ELISA in sciatic nerve extracts of diabetic rats; conditions: sciatic nerves; SFZ 200 mg/Kg BW daily for 9 months; mean ± SD of 3 animals
Method: as §1

COX-2 = test: Immunoblot of COX-2 expression in sciatic nerve extracts of diabetic rats; conditions: normal vs diabetic vs SFZ-treated diabetic animals, FIG. 5
Method: as §1

adenosine derivatives = test: Reverse-phase HPLC of adenosine derivatives (inosine, AMP) in sciatic nerve extracts of diabetic rats; conditions: total sciatic nerves; SFZ 200 mg/Kg BW daily for 9 months; mean ± SEM of 4 animals
Text: Administration of either adenosine or of adenosine kinase or adenosine deaminase inhibitors appears to increase nociception thresholds. Two studies have reported that acute administration of either adenosine or adenosine kinase inhibitors can prevent some nerve abnormalities in experimental diabetes. […] However, no studies have investigated the eventual changes in levels of adenosine (or its metabolites) in diabetic nerves. […] Given these precedents, and to determine whether the beneficial effects of SFZ might be mediated through changes in adenosine levels, we measured the levels of this nucleoside in sciatic nerve extracts. Separation of adenosine derivatives was performed by reverse-phase HPLC in […]. This method allows proper separation of ATP, ADP, AMP, adenosine and inosine standards (FIG. 6). Under our experimental conditions we didn't detect an adenosine peak in the sciatic nerve extracts, but we typically observed small peaks corresponding to ATP and ADP and two relatively large peaks corresponding to AMP and inosine (a metabolite obtained by deamination of adenosine) (FIG. 7). The lack of an adenosine peak following fractionation of the sciatic nerve extracts is consistent with metabolism to AMP and/or with the presence of significant adenosine deaminase activity in these samples (and complete degradation to inosine and other breakdown products). […] The analysis of the elution profiles corresponding to sciatic nerve extracts prepared from normal, diabetic and SFZ-treated diabetic rats is summarized in Table 3. We observed that the SFZ-treated diabetic rats display an increase of inosine and a decrease in AMP levels. The design of these experiments could be improved to include the derivatization of samples (and increase the resolution of the ATP and ADP peaks) and/or dual analysis of samples to improve separation of overlapping components.

N=C(N)NN [AMG, aminoguanidine]
prevention of tactile allodynia (result in words) [1]: partial prevention of tactile allodynia

CN(C)CC(=O)Nc1ccc2[nH]c(=O)c3ccccc3c2c1 [PJ-34]
prevention of tactile allodynia (result in words) [1]: partial prevention of tactile allodynia

O=C(O)c1cc(/N=N/c2ccc(S(=O)(=O)Nc3ccccn3)cc2)ccc1O [SFZ, 5([p(2-pyridylsulfamoyl)phenyl]azo)salicylic acid]
prevention of tactile allodynia (result in words) [1]: completely prevents the development of tactile allodynia | animals in which development of tactile allodynia was prevented ([1]; after one month of treatment): 50% | animals in which development of tactile allodynia was prevented ([1]; after three months of treatment): 80-100% | prevention of tactile allodynia over time (result in words) ([1]; treatment for up to 9 months, different time-points, FIG. 1): prevents the development of tactile allodynia | effect on mechanical withdrawal thresholds (mechanical hyperalgesia) [2]: modest amelioration of the mechanical thresholds that was not statistically significant | diabetes-induced increase in expression of p65 NFkB in sciatic nerves (p65 NFkB): can be prevented by SFZ treatment | NO (NO): 3.08 ± 0.25 nmoles/mg protein | PGE2 (PGE2): 366 ± 220 pmoles/mg protein | expression of COX-2 in sciatic nerve (COX-2): did not observe any significant changes | AMP (adenosine derivatives): 2.04 ± 0.37 nmoles/mg protein | Inosine (adenosine derivatives): 5.25 ± 0.64 nmoles/mg protein | Inosine/AMP (adenosine derivatives): 2.71 ± 1.34

CC(=O)Oc1ccccc1C(=O)O [aspirin]
prevention of tactile allodynia (result in words) [1]: partial prevention of tactile allodynia

Vitamin E [VIT E]
prevention of tactile allodynia (result in words) [1]: partial prevention of tactile allodynia

— patent US20070244077A1, “COMPOSITION AND METHOD OF TREATING PERIPHERAL NEUROPATHY” (priority 2006, published 2007)
